Data taken from ChEMBL document CHEMBL1201862, “PubChem BioAssay data set” (2004).
Active and inactive are the calls of the source.

What was measured:
[1] = biological target: ADP-ribosylation factor GTPase-activating protein 1 (Rattus norvegicus, UniProt Q62848); assay: Fluorescence polarization-based biochemical high throughput dose response screening assay to identify inhibitors of ADP-ribosylation factor GTPase activating protein 1 (ARFGAP1).; assay type: functional
[2] = biological target: Arf-GAP with SH3 domain, ANK repeat and PH domain-containing protein 1 (Homo sapiens, UniProt Q9ULH1); assay type: functional;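 also: biochemical fluorescence polarization dose–response screen measuring inhibition of ASAP1; ASAP1 GAP domain stimulating GTP hydrolysis by truncated human ARF1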
[3] = NIH/3T3 fibroblast cytotoxicity, dose response, cytotoxicity control for T. cruzi growth inhibitor project, cell-based, cherry-pick samples, set 2 (AID 651817); assay type: functional; conditions: NIH3T3
[4] = intracellular Trypanosoma cruzi inhibitors in host cells – cell-based, plate reader, cherry-pick samples, set 3, dose response (AID 651818); assay type: functional;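 also: compounds incubated with infected cells for about four days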
[5] = biological target: T1, Tyrosine-protein phosphatase non-receptor type 22 (Homo sapiens, UniProt Q9Y2R2); assay: PTPN22 phosphatase inhibition, dose response, selectivity assay for STEP inhibitor project, biochemical (AID 624241); assay type: functional
T1 sequence (Q9Y2R2 whole entry): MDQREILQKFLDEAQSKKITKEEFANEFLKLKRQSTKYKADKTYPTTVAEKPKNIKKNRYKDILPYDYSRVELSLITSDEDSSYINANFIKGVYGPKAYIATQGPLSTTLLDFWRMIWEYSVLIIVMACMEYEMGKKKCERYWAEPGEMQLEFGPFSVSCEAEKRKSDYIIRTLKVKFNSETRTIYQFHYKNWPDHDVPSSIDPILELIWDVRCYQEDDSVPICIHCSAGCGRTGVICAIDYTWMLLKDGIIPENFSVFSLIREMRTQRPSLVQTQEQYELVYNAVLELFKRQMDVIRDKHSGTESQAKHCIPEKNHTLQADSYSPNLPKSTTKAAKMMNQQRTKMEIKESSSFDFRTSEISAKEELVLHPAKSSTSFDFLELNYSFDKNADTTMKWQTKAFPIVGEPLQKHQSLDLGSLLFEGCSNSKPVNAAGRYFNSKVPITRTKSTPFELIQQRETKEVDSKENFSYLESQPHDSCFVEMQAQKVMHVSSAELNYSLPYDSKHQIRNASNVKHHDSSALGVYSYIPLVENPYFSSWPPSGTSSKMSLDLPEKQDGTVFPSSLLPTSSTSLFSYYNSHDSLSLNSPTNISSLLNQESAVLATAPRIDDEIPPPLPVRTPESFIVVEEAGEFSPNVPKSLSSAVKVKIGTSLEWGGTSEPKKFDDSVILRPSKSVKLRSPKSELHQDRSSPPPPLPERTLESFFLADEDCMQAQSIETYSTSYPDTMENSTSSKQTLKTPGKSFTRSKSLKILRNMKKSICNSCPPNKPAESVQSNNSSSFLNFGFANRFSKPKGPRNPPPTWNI

[6] = biological target: T2, Small ubiquitin-related modifier 1 (Homo sapiens, UniProt P63165); assay: inhibitors of SUMO1 partner interactions, dose response, biochemical, FRET (AID 624383); assay type: functional; conditions: read-out: IC50_Mean
[7] = biological target: T2, Small ubiquitin-related modifier 1; assay: inhibitors of SUMO1 peptide binding, dose response, biochemical, fluorescence polarization, uHTS hits (AID 624382); assay type: functional; conditions: read-out: IC50_Mean
[8] = biological target: Tyrosine-protein phosphatase non-receptor type 5 (Homo sapiens, UniProt P54829); assay: STEP phosphatase inhibitors, confirmation, biochemical, fluorescence intensity, uHTS hits (AID 602372); assay type: functional; conditions: read-out: IC50_Mean
[9] = biological target: Dual specificity protein phosphatase 3 (Homo sapiens, UniProt P51452); assay: VHR phosphatase inhibition, dose response, selectivity assay for STEP inhibitor project, biochemical (AID 602374); assay type: functional; conditions: read-out: IC50_Mean
[10] = biological target: Tyrosine-protein phosphatase non-receptor type 11 (Homo sapiens, UniProt Q06124); assay: SHP2 phosphatase inhibition, dose response, selectivity assay for STEP inhibitor project, biochemical (AID 602367); assay type: functional; conditions: read-out: IC50_Mean
Steroidogenic factor 1 = Steroidogenic factor 1 (Homo sapiens, UniProt Q13285); assay: Counterscreen for inverse agonists of the liver receptor homolog-1 (LRH-1; NR5A2): Luminescence-based cell-based high throughput dose response assay to identify inverse agonists of the Steroidogenic Factor 1 Nuclear Receptor (SF1; NR5A1).; assay type: functional
[11] = biological target: Nuclear receptor subfamily 5 group A member 2 (Homo sapiens, UniProt O00482); assay type: functional, cell-based;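 also: HEK293T cells transfected with LRH-1 and a StAR promoter luciferase reporter; potency for inhibitors that lower LRH-1 driven reporter light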
[12] = StAR promoter reporter inhibition counter-screen, dose response, counter-screen for LRH-1 inverse agonist project, cell-based, luminescence, luciferase reporter (AID 651969); assay type: functional

T2 sequence (P63165 whole entry): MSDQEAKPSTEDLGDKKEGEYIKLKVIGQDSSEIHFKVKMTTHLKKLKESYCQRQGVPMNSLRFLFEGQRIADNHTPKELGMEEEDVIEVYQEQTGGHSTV
Chain of Tyrosine-protein phosphatase non-receptor type 11 (Q06124 whole entry): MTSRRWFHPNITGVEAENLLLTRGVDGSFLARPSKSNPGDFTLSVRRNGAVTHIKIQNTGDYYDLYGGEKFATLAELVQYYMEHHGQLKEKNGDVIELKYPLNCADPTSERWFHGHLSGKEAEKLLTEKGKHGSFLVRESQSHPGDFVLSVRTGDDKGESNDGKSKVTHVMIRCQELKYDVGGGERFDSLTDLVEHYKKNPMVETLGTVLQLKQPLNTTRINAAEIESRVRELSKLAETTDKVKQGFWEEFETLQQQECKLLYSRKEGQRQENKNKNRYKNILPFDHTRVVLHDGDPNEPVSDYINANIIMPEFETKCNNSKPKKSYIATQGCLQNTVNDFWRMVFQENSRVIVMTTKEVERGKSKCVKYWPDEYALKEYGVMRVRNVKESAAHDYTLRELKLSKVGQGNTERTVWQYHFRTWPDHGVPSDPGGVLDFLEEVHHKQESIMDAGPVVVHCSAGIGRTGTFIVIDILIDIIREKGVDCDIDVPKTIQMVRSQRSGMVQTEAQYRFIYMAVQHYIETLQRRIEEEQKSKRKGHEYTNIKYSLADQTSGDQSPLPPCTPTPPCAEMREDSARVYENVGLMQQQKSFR
Chain of Steroidogenic factor 1 (Q13285 whole entry): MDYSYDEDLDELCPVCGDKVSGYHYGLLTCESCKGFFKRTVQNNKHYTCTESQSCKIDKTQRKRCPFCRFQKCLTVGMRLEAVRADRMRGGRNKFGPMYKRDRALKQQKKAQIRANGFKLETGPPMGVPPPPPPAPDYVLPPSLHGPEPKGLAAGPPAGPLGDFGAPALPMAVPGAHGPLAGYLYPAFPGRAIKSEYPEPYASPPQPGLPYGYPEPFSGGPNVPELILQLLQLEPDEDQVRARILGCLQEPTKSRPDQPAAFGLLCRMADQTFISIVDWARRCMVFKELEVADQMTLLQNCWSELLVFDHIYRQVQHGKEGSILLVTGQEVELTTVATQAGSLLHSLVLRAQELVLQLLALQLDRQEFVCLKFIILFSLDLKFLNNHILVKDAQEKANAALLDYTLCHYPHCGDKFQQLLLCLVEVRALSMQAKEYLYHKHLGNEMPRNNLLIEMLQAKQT
Chain of Nuclear receptor subfamily 5 group A member 2 (O00482 whole entry): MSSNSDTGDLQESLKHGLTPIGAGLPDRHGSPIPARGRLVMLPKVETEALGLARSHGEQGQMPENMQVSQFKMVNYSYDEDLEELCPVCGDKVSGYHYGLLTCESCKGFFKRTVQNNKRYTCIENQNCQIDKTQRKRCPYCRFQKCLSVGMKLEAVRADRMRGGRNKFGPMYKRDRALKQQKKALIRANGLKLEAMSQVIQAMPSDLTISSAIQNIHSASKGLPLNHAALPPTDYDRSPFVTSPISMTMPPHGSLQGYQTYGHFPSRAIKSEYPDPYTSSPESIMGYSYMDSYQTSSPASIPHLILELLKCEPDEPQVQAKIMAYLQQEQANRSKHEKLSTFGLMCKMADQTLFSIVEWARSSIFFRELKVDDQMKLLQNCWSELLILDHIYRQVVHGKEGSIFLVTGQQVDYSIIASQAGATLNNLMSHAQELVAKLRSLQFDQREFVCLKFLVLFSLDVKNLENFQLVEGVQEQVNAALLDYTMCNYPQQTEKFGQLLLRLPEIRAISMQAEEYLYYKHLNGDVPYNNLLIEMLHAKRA
Chain of Arf-GAP with SH3 domain, ANK repeat and PH domain-containing protein 1 (Q9ULH1 whole entry, the tested form may be a part): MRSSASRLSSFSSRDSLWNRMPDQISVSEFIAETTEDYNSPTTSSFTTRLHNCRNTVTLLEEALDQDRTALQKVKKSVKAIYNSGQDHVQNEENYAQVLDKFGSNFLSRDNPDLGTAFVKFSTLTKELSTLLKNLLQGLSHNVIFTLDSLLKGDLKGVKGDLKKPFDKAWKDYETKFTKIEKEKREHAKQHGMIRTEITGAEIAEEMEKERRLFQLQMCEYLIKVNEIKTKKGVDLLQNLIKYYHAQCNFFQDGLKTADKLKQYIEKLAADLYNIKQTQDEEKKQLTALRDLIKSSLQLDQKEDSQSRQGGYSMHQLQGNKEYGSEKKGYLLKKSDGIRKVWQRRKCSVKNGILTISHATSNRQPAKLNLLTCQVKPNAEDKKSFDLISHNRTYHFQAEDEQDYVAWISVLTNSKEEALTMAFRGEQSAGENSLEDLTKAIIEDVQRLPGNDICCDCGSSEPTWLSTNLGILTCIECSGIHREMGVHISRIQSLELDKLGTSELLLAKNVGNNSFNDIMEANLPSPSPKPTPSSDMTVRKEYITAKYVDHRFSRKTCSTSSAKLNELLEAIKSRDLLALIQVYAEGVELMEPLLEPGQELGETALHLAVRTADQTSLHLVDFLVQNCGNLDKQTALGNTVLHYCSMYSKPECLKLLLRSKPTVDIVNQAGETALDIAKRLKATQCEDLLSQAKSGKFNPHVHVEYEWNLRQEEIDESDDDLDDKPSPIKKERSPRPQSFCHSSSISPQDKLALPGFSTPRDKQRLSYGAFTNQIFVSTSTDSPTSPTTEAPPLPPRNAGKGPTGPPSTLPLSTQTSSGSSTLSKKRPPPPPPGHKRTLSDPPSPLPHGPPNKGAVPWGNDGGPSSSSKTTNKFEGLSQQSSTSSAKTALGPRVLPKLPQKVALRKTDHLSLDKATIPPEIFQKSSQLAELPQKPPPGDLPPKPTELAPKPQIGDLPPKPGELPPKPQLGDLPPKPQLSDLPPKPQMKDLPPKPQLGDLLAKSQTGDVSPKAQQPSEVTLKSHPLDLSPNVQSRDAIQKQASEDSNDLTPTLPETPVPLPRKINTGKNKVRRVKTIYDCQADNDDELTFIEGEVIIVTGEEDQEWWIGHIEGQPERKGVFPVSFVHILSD
Chain of ADP-ribosylation factor GTPase-activating protein 1 (Q62848 whole entry, the tested form may be a part): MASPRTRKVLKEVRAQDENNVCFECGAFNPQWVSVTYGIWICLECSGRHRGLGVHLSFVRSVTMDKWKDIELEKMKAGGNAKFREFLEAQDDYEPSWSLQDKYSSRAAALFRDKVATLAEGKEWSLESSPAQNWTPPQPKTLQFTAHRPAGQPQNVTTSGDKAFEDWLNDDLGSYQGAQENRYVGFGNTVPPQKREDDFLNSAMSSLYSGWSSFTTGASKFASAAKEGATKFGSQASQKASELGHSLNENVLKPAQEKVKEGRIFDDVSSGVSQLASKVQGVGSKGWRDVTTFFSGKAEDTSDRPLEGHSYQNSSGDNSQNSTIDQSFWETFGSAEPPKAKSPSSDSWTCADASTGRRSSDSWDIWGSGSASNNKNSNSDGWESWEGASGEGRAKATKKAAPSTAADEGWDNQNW
Chain of Tyrosine-protein phosphatase non-receptor type 5 (P54829 whole entry): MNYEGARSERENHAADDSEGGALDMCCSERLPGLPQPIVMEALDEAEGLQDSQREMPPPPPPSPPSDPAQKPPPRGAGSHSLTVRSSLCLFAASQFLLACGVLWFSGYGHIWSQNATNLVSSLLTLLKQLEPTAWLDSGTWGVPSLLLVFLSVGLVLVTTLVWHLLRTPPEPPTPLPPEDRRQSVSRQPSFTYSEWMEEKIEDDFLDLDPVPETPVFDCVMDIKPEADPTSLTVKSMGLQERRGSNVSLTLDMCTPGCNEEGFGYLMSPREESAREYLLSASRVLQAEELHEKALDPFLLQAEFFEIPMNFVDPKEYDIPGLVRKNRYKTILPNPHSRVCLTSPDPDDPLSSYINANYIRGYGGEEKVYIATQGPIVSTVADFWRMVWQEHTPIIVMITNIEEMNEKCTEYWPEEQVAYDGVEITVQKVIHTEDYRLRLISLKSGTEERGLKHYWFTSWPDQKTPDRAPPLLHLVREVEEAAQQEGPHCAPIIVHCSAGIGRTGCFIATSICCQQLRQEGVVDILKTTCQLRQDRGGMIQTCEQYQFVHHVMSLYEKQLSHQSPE
Chain of Dual specificity protein phosphatase 3 (P51452 whole entry): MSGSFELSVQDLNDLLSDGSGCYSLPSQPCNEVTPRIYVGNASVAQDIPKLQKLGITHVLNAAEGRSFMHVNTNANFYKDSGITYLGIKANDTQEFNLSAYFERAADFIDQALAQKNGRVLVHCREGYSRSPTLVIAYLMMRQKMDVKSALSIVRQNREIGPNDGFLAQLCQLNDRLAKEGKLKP

In the case of `COC(=O)Cn1cc(/C=N/NC(=O)COc2cccc3cccnc23)c2ccccc21`, the IC50 [1] is reported as 119 µM (inactive) and the IC50 [2] is reported as 116 µM (inactive).
With `COc1ccc(CN(C)C[C@@H]2Oc3c(NC(=O)Nc4ccc(C(F)(F)F)cc4)cccc3C(=O)N([C@H](C)CO)C[C@H]2C)cc1` the AC50 [3] was 11.3 µM (active) and the AC50 [4] was 1.8 µM (active).
With `CC1=C(C(=O)OC(C)C)C(c2ccc(Cl)cc2)n2c(s/c(=C\c3ccc(OCC(=O)O)cc3)c2=O)=N1` (stereo not drawn) the IC50 [5] was 14.7 µM (active), the IC50 [6] was 7.22 µM (active) and the IC50 [7] was > 66.6 µM (inactive). The IC50 [8] was 4.68 µM (active), the IC50 [9] was 3.02 µM (active) and the IC50 [10] was 3.24 µM (active).
With `CCOc1ccc(NC(=O)COC(=O)c2ccc3c(c2)OCCO3)cc1` the IC50 (Steroidogenic factor 1) was 1.01 µM (active), the IC50 [11] was 12.9 µM (inactive) and the IC50 [12] was 35.9 µM (inactive).
